Laboratory results from patent US12433870B2, “Supramolecular photoprotection of a photosensitizer” (Northwestern University, priority 2019, dated 2025).

Key:
[1] = Detection of singlet oxygen (ADPA chemical method, methylene blue reference); format: physicochemical; conditions: 20 μM, 630 nm, 50 mW, 20 min
Protocol: Singlet oxygen (^1O2) quantum-yield measurements were conducted by a chemical method. The disodium salt of 9.10-anthracenedipropionic acid (ADPA) was used as singlet oxygen detection reagent with methylene blue used as a reference (Φt=0.53). In this experiment, ADPA (0.1 μmol) was added to the H2O solution of ExBox^4+⊃DPP (20 μM) with a laser irradiation (630 nm, 50 mW) for 20 min, followed by quantification of ^1O2 by the absorbance intensity change (UV-3600 Shimadzu spectrophotometer) at 380 nm of ADPA. The calculation of ^1O2 quantum yield is based on the equality ΦΔ=(ΔAs/[…])Φr. ΔAs is the absorption change of detected photosensitizer, ΔAr is the absorption change of referenced photosensitizer and Φ^r is the quantum yield of singlet oxygen of referenced photosensitizer (methylene blue).
(§1) ADPA (0.1 μmol) was added to the H2O solution of DPPH2^+ (20 μM) with a laser irradiation (630 nm, 50 mW) for 20 min, followed by quantification of the ^1O2 by the absorbance intensity change (UV-3600 Shimadzu spectrophotometer) at 380 nm of ADPA. The calculation of the ^1O2 quantum yield is based on the equality ΦΔ=(ΔAs/ΔAr)Φr where ΔAs is the absorption change of detected photosensitizer, ΔAr is the absorption change of referenced photosensitizer and Φr is the quantum yield of singlet oxygen of referenced photosensitizer (methylene blue). Measured ^1O2 quantum yield of DPPH2^2+ is 0.38 in H2O.
as §1, with “acetone” for “H2O”, “DPP” for “DPPH2^+”, “DPP” for “DPPH2^2+”, “0.43” for “0.38”, “acetone.” for “H2O.”

A2780 cells [2] = test: In vitro PDT efficacy, MTT assay after visible light irradiation; format: cell-based, human; conditions: 10 μM PBS solution, light dose 0.078 J cm^−2
Protocol: A2780 cells (human ovarian cancer cell line) and MCF-7 cells (human breast adenocarcinoma cell line) obtained from Sigma-Aldrich and American Type Culture Collection (ATCC, Rockville, MD, USA), respectively were utilized for cell culture experiments. These cells were cultured in Dulbecco's Modified Eagle's Medium (DMEM) supplemented with 10% fetal bovine serum (FBS), penicillin (100 IU/mL) and streptomycin (100 μg/mL) at 37° C. in the presence of air (95%) and CO2 (5%).
A2780 or MCF-7 cells (2×10^5 cells/mL, 100 μL) were seeded in each well of a black 96-well plate. Stock solution of ExBox^4+⊃DPP in PBS (1 mM, 10 μL) was added to each well to achieve working concentrations and incubated for 12 h. After incubation, wells were washed with PBS, added with 100 μL of DMEM and immediately irradiated with visible light using Max-303 Xenon Light Source (385-740 nm, Asahi Spectra) at different light intensities (5-50 mW) for 1 to 15 min. Following irradiation, cells were incubated overnight and then added with MTT (5 mg/mL in PBS, 10 μL). After 4 h incubation with MTT, media from each well was pipetted out, formazan crystals deposited on the plate were dissolved in 200 μL of Me2SO, and the absorbance of each well was measured using a microplate reader at 560 nm. All the samples were analyzed in quadruplicates.
The percentage cell viability was calculated using the following formula: % cell viability=(OD of treated sample/OD of untreated sample)*100.

A2780 cells [3] = test: Live cell confocal microscopy, cellular uptake and co-localization; format: cell-based, human; conditions: lysosomal uptake, control experiment
Protocol: A2780 cells (1×10^5 cells/mL, 300 μL) were plated in each well of an 8-well μ-slide (ibidi cell focus) and cultured overnight. PBS solution of ExBox^4+⊃DPP was added to each well and incubated for predetermined time points. For cellular co-localization studies, cells were washed with phenol free DMEM and stained with LysoTracker green (lysosome stain, 1:1000 dilution) or MitoSpy™ Green FM (mitochondria stain, 1:2000 dilution) or NucBlue™ Live ReadyProbes™ Reagent (nuclei stain, 1 drop). For the live-dead assay, cells were incubated with PBS solution of ExBox^4+⊃DPP irradiated for 10 min at […] light intensity, incubated overnight, and stained with Calcein AM (2 μM) and Ethidium homodimer-1 (4 μM). Plated cells were imaged within a humidified chamber using a 63× oil-immersion objective on a SP5 Leica Confocal Microscope using HyD detectors and lasers.

[4] = reference photosensitizer; cited from earlier work
[5] = Solubility in water / PBS buffer; format: physicochemical

C1=Cc2nc1cc1ccc([nH]1)c(-c1ccccc1)c1nc(cc3ccc([nH]3)c2-c2ccccc2)C=C1 [DPPH2^2+, reference compound]
^1O2 quantum yield ([1]; in H2O): 0.38 | cells killed (PDT control experiment) (A2780 cells [2]): ~90% | cellular uptake compared with the complex (fluorescence intensity inside cells) (A2780 cells [3]): less efficient

CN(C)c1ccc2nc3ccc(=[N+](C)C)cc-3sc2c1 [methylene blue]
^1O2 quantum yield of reference [4]: 0.53

C1=Cc2nc1cc1ccc([nH]1)c(-c1ccccc1)c1nc(cc3ccc([nH]3)c2-c2ccccc2)C=C1 [DPP, 5,15-diphenylporphyrin]
^1O2 quantum yield ([1]; in acetone): 0.43 | solubility in H2O ([5]; H2O): insoluble | solubility in water and PBS buffer ([5]; water and PBS buffer): insoluble
